Experimental data taken from patent US20170073324A1, “Bifidenone Compositions and Methods of Use” (Sequoia Sciences, Inc., priority 2015, published 2017).
Where two headings read alike, the source gives them in different places.

Assays:
[1] = tested on: NCI-H460 (large cell lung carcinoma) cells; assay: Antiproliferation assay (CELLTITER 96 AQueous, 72 h); format: cell-based; conditions: Homo sapiens
Experimental: Bifidenone was tested for its ability to inhibit the proliferation of human cancer cells in vitro as described in the following paragraph. IC50 is defined as the concentration of compound necessary to achieve 50% of the maximum growth inhibition.
For the antiproliferation assay, NCI-H460 (large cell lung carcinoma) or M14 (amelanotic melanoma) cells were grown in RPMI-1640 with 10% FBS supplemented with L-glutamine and HEPES. Cells were seeded into 96-well plates at 5×10^2 to 5×10^4 cells/well and allowed to adhere overnight; the medium was then removed. A stock solution of test compound in DMSO was diluted in medium to generate a series of working solutions. Aliquots (100 μL) of the working solutions were then added to the appropriate test wells to expose cells to the final concentrations of compound in a total volume of 100 μL. Seven different concentrations were tested, with 2-5 wells per concentration. Camptothecin was used as a positive control; wells containing vehicle without compound were used as negative controls. Plates were kept for 72 h in a 37° C., 5% CO2 incubator. After incubation, viable cells were detected with the CELLTITER 96 AQueous Non-Radioactive Cell Proliferation Assay (Promega), and IC50 values were determined using GraphPad Prism 5 software.

[2] = tested on: tubulin; assay: In vitro tubulin polymerization assay; format: biochemical; conditions: absorbance readout, FIG. 3
Experimental: To test the hypothesis that bifidenone inhibits cell proliferation by interfering with microtubule dynamics, it was tested in an in vitro tubulin polymerization assay. FIG. 3 illustrates inhibition of tubulin polymerization by bifidenone. Increased absorbance corresponds to increased polymerization.

[3] = tested on: NCI-H460 lung cancer cells; assay: Cell cycle analysis (propidium iodide, flow cytometry); format: cell-based, human; conditions: NCI-H460, 1, 2, or 3× the IC50 for 6, 18, or 24 h
Experimental: Antitubulin agents typically interfere with mitosis by disrupting the microtubule dynamics necessary for cell division. […] Cells were then treated with propidium iodide and analyzed using flow cytometry.

[4] = tested on: NCI-H460 cells; assay: Western blot analysis of G2/M markers; format: cell-based, human; conditions: NCI-H460, 21 h
Experimental: Nocodazole is known to cause G2/M arrest. Cell lysates were analyzed by western blot using the antibodies indicated on the left. Individual protein bands are designated on the right.

[5] = tested on: caspases 3 and 7 in NCI-H460 lung cancer cells; assay: Caspase 3/7 luminescent apoptosis assay; format: cell-based, human; conditions: NCI-H460, varying concentrations
Experimental: FIG. 6 illustrates Caspase assay. Enzyme activity of caspases 3 and 7 was determined using a luminescent assay. NCI-H460 lung cancer cells were treated with varying concentrations of bifidenone or the known antitubulin agents paclitaxel or colchicine. The readout of relative light units is proportional to total caspase 3 and 7 activity.

[6] = tested on: PARP and caspase-7; assay: Western blot of PARP and caspase-7 cleavage; format: cell-based; conditions: FIG. 7
[7] = tested on: colchicine binding site of tubulin; assay: Ultrafiltration-based tubulin competition assay; conditions: free ligand by LC/MS
Text: (§1) In order to determine the binding site of bifidenone on tubulin, a published ultrafiltration-based competition assay was used. In this assay, tubulin is allowed to bind with a known ligand, and then free ligand is separated by ultrafiltration and analyzed by LC/MS. In the presence of a competitor, the concentration of free ligand increases. […] FIG. 8 illustrates tubulin competition assay. Each graph depicts the amount of unbound compound detected in the presence of varying concentrations of competitors. Known competitors were used as positive controls: podophyllotoxin for the colchicine site (left), vinblastine for the vincristine site (center), and docetaxel for the paclitaxel site (right). Amounts of free compound are expressed as percentages normalized to the amount of free compound detected in the presence of 100 μM known competitor.

[8] = tested on: paclitaxel binding site of tubulin; assay: Ultrafiltration-based tubulin competition assay; conditions: free ligand by LC/MS
Text: as §1

[9] = Mouse plasma concentration after IP injection; format: in vivo, mice
Experimental: The bioavailabilities of certain compounds were examined in mice. Administration of the compounds was performed by intraperitoneal (IP) injection using a vehicle as known to those skilled in the art. To measure compound concentrations in plasma, blood is collected by cardiac puncture at a specified time after dosing. It is then centrifuged in a plasma separator tube with NaEDTA/NaF as the anticoagulant, and the resulting plasma is stored at −80° C. For analysis, an internal standard is added to a 200 μL aliquot of plasma, and the aliquot is extracted with ethyl acetate. The ethyl acetate extract is analyzed by LC/MS and quantitated using a standard curve prepared by adding known amounts of test compound and internal standard to 200 μL aliquots of blank mouse plasma.
Many vehicles can be used to examine bioavailability. Prior to administration, each vehicle was optimized based on compound solubility according to the formulation research conducted by Uckun et at (Uckun, F. M., Tibbles, H., Erbeck, D., Venkatachalam, T. K., Qazi, S., 2007). In vivo pharmacokinetics and toxicity of a novel hydrophilic oral formulation of the potent non-nucleoside reverse transcriptase inhibitor compound N′-[2-(2-thiophene)ethyl]-N′-[2-(5-bromopyridyl)]-thiourea (HI-443). Arzneimittelforschung 57, 218-226.). […] The concentration of PEG400 is modulated depending upon solubility of the compounds and the amount of water phase added.
With larger injections (75-100 mg/kg), plasma concentrations were >4 times the IC50 at 6 h.

[10] = Epimerization by TFA in HPLC solvents; format: physicochemical; conditions: TFA (0.05%) in HPLC solvents
Experimental: To obtain additional bifidenone for antiproliferation assays, the remaining material from the Beilschmiedia specimen was fractionated. […] Consequently, future isolations were performed without TFA in the semipreparative steps. Ultimately, 79 μg of bifidenone was isolated.

IC50 ([1]; NCI-H460, 72 h, read-out: IC50 against NCI-H460): 0.36 µM
IC50 ([1]; NCI-H460, as restated in Example VII, read-out: IC50 against NCI-H460 human lung cancer cells): 0.36 µM
competition for the colchicine binding site [7]: competes for the colchicine binding site
competition for the paclitaxel binding site [8]: weakly for the paclitaxel binding site
change of plasma concentration with vehicle ([9]; initial formulation diluted with up to 20% water): not diminished
concentration at 1 h ([9]; mouse, plasma, 1 h post-injection, 40 mg/kg IP, vehicle 40% propylene glycol, 20% TWEEN-20, 20% PEG400, 20% ethanol): > 360 nM
change of plasma levels with vehicle ([9]; propylene glycol decreased to 25%): diminished
change of plasma levels with vehicle ([9]; propylene glycol increased to 45% and TWEEN-20 decreased to <3%): increased or were not diminished
stability to TFA [10]: prone to epimerization
SMILES: C=CC[C@H]1C[C@]2([C@@H](C)Cc3ccc(OC)c(OC)c3)OCOC2=CC1=O [bifidenone, (6S,7aR)-6-Allyl-7a-((S)-1-(3,4-dimethoxyphenyl)propan-2-yl)-7,7a-dihydrobenzo[d][1,3]dioxol-5(6H)-one]
inhibition of tubulin polymerization [2]: inhibits tubulin polymerization in a dose-dependent manner
cell cycle effect [3]: causes arrest in the G2/M phase of the cell cycle
protein expression and phosphorylation patterns (Histone H3 Ser10, Myt1, Aurora A/B/C, cdc2 Tyr15) [4]: consistent with G2/M arrest
apoptosis by enzymatic activity of caspases 3 and 7 [5]: undergo apoptosis
cleavage of caspase-7 and PARP [6]: cleavage of caspase-7 and PARP occurred
